Source: patent US20070015771A1, “Lonidamine analogs” (Threshold pharmaceuticals, Inc., priority 2004, published 2007)

Tests used:
BPH-1 = assay: Antiproliferation assay 3 days, BPH-1 cells; format: cell-based; conditions: 3 day treatment; read-out: BPH-1 cell line IC50
Experimental: (§1) To determine the effect of lonidamine analogs thereof on cell proliferation, the antiproliferative activity of these compounds was tested in a multi-well Alamar Blue based assay (at 3 days). Cell growth in the presence and absence of the test compound was compared, as measured by a fluoresence plate reader at excitation 550 nm and emission 590 nm (see Biosource International Inc., Tech Application Notes, Use of Alamar Blue in the measurement of Cell Viability and Toxity, Determining IC50). The following cell lines were tested: PWR-1E cells ((ATCC CRL-11611), 3500 cells/well/200 μl in Keratinocyte SFM medium (Gibco Products, Invitrogen Corporation, Carlsbad, Calif.)); DU-145 cells ((ATCC HTB-81), 4000 cells/well/200 μl in MEM Eagles medium (ATCC, Manassas, Va.)); PC3 cells ((ATCC CRL-1435), 4000 cells/200 μl in Modified HAM's F12 medium (ATCC, Manassas, Va.)); PNt2 cells ((Sigma-Aldrich, 95012613-1 VL), 4000 cells/well/200 μl in RPMI medium (Gibco Products, Invitrogen Corporation, Carlsbad, Calif.), BPH-1 ((DSMZ ACC-143), 4000 cells/well/200 μl in RPMI medium (Gibco Products, Invitrogen Corporation, Carlsbad, Calif), and NCI-H460 cells ((ATCC HTB-177), 4000 cells/well/200 μl in RPMI medium (Gibco Products, Invitrogen Corporation, Carlsbad, Calif.)). The cells were seeded in a 96 well plate in a medium specified above. After 24 hours, these plates were divided into 2 groups—Control group and 3 day treatment group. A test compound was added to each plate in the treatment groups at concentrations of […] as tabulated in Table 1 (in 2 μl 1 of 100% DMSO, final DMSO concentration 1% in all wells). For NCI-H460 cells, test compounds were added to each plate in the treatment groups at concentrations of 600, 300, 100, 30, 10, 3, and 1 μM (in 2 μl of 100% DMSO, final DMSO concentration 1% in all wells). The cells in the 3 day treatment group were incubated for 3 days, followed by staining with AlamarBlue. In the Control group, AlamarBlue was added to the plate at (i) day 0 and (ii) day 3 and measured to establish the control reading. […] For the NCI-H460 cells, the capacity of the cells to proliferate was measured 5 hours after addition of AlamarBlue using the same fluorescence plate reader as stated above.

PC3 cells = assay: Antiproliferation assay 3 days, PC3 cells; format: cell-based, human; conditions: 3 day treatment; read-out: PC-3 cell line IC50
Experimental: as §1

mouse prostate = assay: Mouse study, 10 days oral, prostate weight; format: in vivo; conditions: C57B1/6J mice, oral daily for 10 days, 0.2-20 mg/kg
Experimental: The control mice received an equal amount of the vehicle (carboxymethylcellulose). […] Relative weights of entire prostate and individual lobes were calculated by dividing the corresponding absolute weight by the total weight of the mouse. Relative weights of the entire prostate, the dorsal prostate, and the ventral prostate were calculated by dividing the absolute weight by the total weight of the mouse. Relative weights of the left and right testis were calculated by dividing the corresponding absolute weights by the total weights of the mouse.

CD-1 mice = assay: Tolerance study in CD-1 mice; format: in vivo, mouse
From the text: The toxicological end-points in this study were standard clinical observations such as changes in movement, breathing, food consumption, mortality and decreased body weight.

O=C(NO)c1nn(Cc2ccc(Cl)cc2Cl)c2ccccc12 [Compound 1] was tested, and the IC50 (BPH-1) was 17.5 µM, the IC50 (PC3 cells) was 15 µM and the “absolute dorsal prostate weight (FIG. 10)” value (mouse prostate) was “dose dependent reduction”. For the same compound, the “absolute ventral prostate weight (FIG. 9)” value (mouse prostate) was “dose dependent reduction”, the “absolute whole prostate weight (FIG. 11)” value (mouse prostate) was “dose dependent reduction” and the prostate weight (mouse prostate) was “dose dependent reduction”. The “relative dorsal prostate weight (FIG. 7)” value (mouse prostate) was “dose dependent reduction”, the “relative ventral prostate weight (FIG. 8)” value (mouse prostate) was “dose dependent reduction” and the “relative whole prostate weight (FIG. 6)” value (mouse prostate) was “dose dependent reduction”. The tolerated dose (CD-1 mice; CD-1 mice, oral dosing for 5 days) was 500 mg/kg/day and the “therapeutic index compared to lonidamine” value (CD-1 mice; mice, when used for prostate weight reduction) was 10 fold.
